The results in this text go back to ChEMBL document CHEMBL1201862, “PubChem BioAssay data set” (2004).

Test [1] concerns the target T1, Sentrin-specific protease 8 (Homo sapiens, UniProt Q96LD8).
T1 sequence (Q96LD8 whole entry): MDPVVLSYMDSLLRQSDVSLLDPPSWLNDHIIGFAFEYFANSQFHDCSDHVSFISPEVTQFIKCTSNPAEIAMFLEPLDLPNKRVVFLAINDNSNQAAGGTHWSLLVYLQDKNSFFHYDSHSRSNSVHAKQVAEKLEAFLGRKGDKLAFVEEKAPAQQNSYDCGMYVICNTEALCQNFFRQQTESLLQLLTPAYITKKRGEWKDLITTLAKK
It counts as functional.

Test [2] has as its target Tyrosyl-DNA phosphodiesterase 2 (Homo sapiens, UniProt O95551). Briefly: potency against TDP2 phosphodiesterase activity – biochemical, epi absorbance, IC50, dose response (AID 743297).
The target of test [3] is T2, Histone-lysine N-methyltransferase NSD2 (Homo sapiens, UniProt O96028).
T2 sequence (O96028 whole entry): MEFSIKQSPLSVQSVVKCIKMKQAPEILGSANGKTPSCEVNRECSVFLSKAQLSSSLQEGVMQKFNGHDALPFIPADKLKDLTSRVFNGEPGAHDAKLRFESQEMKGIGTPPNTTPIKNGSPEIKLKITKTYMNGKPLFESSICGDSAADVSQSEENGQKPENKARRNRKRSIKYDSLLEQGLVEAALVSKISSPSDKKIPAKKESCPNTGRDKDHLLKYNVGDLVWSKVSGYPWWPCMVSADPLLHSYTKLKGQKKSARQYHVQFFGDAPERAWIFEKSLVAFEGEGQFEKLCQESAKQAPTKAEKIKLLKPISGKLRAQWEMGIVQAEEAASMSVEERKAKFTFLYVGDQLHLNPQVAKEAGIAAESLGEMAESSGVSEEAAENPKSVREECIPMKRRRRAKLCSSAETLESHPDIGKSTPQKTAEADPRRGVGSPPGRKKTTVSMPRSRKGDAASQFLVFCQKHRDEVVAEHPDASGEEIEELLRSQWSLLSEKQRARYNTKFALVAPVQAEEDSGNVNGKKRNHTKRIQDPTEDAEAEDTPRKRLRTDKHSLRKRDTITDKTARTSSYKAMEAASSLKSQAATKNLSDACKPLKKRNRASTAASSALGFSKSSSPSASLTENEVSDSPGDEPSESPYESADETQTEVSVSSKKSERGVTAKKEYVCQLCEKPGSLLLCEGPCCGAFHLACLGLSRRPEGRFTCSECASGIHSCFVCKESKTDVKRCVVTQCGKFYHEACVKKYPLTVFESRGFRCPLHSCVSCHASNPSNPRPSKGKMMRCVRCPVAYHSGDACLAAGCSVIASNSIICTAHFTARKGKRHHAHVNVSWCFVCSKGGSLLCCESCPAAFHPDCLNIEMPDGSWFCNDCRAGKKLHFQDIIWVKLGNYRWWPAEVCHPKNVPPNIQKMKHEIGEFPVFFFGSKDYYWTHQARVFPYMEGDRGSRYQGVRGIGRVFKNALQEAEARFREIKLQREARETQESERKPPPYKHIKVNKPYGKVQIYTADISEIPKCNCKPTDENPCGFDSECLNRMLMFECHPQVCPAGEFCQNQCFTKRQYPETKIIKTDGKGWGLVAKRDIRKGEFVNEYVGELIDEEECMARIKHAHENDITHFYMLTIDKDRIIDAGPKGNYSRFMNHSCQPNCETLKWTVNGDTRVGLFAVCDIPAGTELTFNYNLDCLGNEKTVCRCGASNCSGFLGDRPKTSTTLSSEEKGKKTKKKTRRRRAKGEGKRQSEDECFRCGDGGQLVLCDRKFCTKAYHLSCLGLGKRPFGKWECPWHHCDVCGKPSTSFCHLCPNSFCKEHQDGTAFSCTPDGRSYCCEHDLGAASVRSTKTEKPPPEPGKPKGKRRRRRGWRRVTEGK
Type of test: biochemical.

For test [4], the target named is T3, Microphthalmia-associated transcription factor (Homo sapiens, UniProt O75030).
T3 sequence (O75030 whole entry): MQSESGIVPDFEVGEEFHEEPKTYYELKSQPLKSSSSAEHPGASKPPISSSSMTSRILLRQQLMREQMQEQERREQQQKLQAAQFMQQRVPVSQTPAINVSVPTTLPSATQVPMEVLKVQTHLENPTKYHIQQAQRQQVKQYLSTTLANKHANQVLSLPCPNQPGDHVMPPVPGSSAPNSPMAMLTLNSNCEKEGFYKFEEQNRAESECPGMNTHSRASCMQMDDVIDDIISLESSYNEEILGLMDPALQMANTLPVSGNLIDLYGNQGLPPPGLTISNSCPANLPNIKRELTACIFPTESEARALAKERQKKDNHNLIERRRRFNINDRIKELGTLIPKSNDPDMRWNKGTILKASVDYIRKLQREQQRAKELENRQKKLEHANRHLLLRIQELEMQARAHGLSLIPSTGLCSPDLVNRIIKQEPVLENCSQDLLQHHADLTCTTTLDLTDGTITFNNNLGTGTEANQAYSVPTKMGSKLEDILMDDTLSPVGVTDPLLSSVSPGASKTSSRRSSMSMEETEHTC
Briefly: reducers of TRPM1 reporter luminescence, concentration series – cell-based, SK-MEL-5, cherry-picked, set 3, MITF inhibitor project, dose response (AID 493073).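 Further: SK-MEL-5 melanoma cells with luciferase driven by the MITF target TRPM1 promoter.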 Type of test: functional.

Test [5] concerns the target T1, Sentrin-specific protease 8. Type of test: functional. The source holds these as a separate data set.
Test [6] has the same target. The test can be described thus: inhibition of human SENP8 cleavage activity – biochemical, luminescence, SAR follow-up (AID 504501). Type of test: functional.
In test [7] the target is Cyclin-dependent kinase 9 (Homo sapiens, UniProt P50750). Type of test: functional.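 Further: value from the CDK9 entry of a kinome-spanning kinase panel.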
The target in test [8] is Fibroblast growth factor receptor 1 (Homo sapiens, UniProt P11362). Type of test: functional.
Fibroblast growth factor receptor 1, sequence (P11362 whole entry): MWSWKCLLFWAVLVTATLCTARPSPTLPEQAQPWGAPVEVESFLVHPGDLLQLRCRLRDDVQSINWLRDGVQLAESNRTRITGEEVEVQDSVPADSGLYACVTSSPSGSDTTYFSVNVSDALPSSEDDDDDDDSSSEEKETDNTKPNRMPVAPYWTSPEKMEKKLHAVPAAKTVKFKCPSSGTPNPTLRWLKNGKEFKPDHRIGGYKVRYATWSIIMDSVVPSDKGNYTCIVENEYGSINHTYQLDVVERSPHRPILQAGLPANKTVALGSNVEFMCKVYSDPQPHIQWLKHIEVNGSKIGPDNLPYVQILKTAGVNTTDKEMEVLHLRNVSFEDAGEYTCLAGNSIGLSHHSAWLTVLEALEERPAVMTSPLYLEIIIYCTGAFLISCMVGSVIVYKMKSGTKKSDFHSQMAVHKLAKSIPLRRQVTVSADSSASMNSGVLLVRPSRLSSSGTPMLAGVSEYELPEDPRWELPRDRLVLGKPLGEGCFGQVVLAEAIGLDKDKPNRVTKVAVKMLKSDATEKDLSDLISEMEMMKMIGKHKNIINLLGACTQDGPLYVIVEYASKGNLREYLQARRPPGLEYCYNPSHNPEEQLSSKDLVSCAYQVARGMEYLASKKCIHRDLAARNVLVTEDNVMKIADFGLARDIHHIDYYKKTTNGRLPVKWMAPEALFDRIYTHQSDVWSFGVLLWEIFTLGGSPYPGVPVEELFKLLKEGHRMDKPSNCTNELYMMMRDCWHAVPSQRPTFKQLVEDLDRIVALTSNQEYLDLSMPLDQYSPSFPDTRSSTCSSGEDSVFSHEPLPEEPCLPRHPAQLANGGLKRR
Test [9] addresses MAP kinase-activated protein kinase 2 (Homo sapiens, UniProt P49137). It counts as functional.
Test [10] concerns the target Tyrosine-protein kinase receptor TYRO3 (Homo sapiens, UniProt Q06418). Type of test: functional.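 Further: TYRO3 value obtained as one member of a kinome-wide profiling panel.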
The target in test [11] is Receptor-type tyrosine-protein kinase FLT3 (Homo sapiens, UniProt P36888). It counts as functional.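 Further: FLT3 was tested as one member of a kinome-wide kinase panel.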
Test [12] has as its target STE20-like serine/threonine-protein kinase (Homo sapiens, UniProt Q9H2G2). It counts as functional.
Another test has as its target Ephrin type-A receptor 2 (Homo sapiens, UniProt P29317). It counts as functional.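 Further: EPHA2 tested as one member of a kinome-wide kinase panel.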
Test [13] deals with cGMP-dependent protein kinase 1 (Homo sapiens, UniProt Q13976). It counts as functional.
For test [14], the target named is Non-receptor tyrosine-protein kinase TYK2 (Homo sapiens, UniProt P29597). It counts as functional.
Non-receptor tyrosine-protein kinase TYK2, sequence (P29597 whole entry): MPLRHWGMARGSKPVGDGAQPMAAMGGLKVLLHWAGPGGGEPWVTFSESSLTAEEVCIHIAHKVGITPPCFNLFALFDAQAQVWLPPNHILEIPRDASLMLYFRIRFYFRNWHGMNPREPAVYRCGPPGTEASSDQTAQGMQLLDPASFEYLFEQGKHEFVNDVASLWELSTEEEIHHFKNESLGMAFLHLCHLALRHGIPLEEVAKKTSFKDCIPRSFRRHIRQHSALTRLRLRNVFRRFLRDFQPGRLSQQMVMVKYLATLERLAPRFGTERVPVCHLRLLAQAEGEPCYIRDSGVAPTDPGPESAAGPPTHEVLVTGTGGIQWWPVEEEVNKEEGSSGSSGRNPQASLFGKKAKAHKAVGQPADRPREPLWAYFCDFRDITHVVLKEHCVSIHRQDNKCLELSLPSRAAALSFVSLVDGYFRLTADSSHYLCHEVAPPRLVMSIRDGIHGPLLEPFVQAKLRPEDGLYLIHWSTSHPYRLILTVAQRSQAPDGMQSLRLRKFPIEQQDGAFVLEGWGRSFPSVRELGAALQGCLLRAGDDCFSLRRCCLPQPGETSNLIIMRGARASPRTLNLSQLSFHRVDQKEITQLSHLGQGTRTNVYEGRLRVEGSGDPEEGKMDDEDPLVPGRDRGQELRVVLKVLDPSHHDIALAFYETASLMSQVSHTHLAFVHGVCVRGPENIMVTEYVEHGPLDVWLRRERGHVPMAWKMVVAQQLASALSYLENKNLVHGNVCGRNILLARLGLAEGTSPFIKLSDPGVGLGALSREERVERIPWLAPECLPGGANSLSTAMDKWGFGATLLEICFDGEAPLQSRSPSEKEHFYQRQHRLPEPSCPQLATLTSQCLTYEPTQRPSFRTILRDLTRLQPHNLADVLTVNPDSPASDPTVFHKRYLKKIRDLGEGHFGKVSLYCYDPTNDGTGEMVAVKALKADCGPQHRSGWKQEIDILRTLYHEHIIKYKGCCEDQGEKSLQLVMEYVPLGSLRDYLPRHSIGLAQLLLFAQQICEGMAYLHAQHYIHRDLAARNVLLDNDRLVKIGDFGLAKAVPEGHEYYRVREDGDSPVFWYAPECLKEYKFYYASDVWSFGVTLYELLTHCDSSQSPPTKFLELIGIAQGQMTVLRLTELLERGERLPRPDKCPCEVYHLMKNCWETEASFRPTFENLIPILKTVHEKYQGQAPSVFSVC
The target in test [15] is Serine/threonine-protein kinase TBK1 (Homo sapiens, UniProt Q9UHD2). The test can be described thus: Navigating the Kinome. Panel member name: TBK1. Type of test: functional.
Serine/threonine-protein kinase TBK1, sequence (Q9UHD2 whole entry): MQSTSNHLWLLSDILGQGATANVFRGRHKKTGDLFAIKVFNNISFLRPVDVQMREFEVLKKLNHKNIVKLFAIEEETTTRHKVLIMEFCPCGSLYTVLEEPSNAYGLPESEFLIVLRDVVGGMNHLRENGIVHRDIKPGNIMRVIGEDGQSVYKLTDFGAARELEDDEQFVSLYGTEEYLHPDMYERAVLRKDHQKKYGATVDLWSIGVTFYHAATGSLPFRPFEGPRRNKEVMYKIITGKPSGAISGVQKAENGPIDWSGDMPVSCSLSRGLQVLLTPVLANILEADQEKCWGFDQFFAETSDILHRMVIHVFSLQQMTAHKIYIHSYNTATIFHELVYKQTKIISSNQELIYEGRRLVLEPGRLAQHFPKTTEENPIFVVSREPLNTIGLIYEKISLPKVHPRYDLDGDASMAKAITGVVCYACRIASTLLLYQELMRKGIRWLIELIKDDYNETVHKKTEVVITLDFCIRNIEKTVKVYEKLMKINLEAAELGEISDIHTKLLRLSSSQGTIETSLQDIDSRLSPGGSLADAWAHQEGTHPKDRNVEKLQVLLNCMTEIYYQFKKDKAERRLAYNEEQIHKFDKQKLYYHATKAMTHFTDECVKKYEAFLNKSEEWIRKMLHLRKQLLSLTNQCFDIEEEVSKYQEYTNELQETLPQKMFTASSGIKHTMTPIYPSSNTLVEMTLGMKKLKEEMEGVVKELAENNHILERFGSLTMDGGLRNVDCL

The source made the active and inactive calls. A value given as a limit tells only on which side of the number the result lay.

Tyrosyl-DNA phosphodiesterase 2, sequence (O95551 whole entry): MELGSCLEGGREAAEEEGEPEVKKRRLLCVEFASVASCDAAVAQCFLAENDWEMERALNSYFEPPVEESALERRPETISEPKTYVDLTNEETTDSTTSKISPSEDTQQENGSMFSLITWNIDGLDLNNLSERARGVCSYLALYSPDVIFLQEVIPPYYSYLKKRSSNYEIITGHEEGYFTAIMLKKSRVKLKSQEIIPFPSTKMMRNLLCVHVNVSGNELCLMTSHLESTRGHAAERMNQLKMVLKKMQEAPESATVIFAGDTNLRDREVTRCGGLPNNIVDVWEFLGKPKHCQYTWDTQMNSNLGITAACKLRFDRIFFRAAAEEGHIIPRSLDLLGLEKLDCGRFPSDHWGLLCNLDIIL
Ephrin type-A receptor 2, sequence (P29317 whole entry): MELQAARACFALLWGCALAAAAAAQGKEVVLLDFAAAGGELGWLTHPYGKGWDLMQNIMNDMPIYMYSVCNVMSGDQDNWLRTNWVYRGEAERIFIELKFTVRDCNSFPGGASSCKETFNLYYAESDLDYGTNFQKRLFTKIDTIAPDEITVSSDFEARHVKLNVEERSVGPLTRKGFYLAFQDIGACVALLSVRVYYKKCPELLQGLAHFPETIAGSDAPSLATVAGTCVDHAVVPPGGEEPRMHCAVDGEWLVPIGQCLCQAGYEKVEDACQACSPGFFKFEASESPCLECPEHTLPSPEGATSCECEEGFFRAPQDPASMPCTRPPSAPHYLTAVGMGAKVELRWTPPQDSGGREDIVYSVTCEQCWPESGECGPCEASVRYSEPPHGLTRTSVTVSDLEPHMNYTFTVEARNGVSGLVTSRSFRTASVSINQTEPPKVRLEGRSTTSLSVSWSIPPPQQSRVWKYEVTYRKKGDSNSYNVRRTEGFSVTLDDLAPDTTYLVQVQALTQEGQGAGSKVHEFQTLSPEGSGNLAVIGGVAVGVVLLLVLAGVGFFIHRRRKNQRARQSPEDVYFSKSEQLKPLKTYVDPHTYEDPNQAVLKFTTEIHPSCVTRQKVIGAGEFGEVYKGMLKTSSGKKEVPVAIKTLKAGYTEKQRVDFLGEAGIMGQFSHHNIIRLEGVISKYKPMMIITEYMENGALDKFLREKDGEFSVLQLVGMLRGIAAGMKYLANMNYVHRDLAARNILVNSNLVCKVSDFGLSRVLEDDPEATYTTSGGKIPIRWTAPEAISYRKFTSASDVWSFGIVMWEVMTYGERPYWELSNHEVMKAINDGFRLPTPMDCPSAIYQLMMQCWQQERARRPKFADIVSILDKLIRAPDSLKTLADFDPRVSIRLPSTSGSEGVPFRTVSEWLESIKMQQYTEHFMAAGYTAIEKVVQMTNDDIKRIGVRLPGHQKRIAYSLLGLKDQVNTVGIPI
Tyrosine-protein kinase receptor TYRO3, sequence (Q06418 whole entry): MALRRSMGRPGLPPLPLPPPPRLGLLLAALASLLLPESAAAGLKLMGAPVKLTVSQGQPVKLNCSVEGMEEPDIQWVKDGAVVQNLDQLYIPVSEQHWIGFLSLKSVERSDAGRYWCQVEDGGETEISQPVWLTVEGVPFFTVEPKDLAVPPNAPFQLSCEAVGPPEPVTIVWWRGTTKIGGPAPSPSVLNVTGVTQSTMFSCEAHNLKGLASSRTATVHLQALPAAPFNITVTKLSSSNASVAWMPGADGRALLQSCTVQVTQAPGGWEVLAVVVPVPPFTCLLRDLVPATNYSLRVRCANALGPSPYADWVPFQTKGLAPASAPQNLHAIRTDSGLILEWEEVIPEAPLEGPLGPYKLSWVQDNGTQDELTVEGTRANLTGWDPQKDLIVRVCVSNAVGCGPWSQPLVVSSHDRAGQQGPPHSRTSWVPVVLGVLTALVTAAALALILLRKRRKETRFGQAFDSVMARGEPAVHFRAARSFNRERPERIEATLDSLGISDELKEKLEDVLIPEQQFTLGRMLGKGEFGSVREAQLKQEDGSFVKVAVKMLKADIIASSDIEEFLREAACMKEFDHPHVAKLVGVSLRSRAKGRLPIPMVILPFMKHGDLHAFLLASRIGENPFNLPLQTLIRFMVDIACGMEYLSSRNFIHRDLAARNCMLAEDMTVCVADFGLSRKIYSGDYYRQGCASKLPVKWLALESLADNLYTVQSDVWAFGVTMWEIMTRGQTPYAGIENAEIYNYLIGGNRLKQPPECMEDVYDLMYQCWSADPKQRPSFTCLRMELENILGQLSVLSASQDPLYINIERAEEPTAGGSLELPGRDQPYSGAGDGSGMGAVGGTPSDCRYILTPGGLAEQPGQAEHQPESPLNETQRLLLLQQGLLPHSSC

As a reminder, the IC50 is the concentration needed to halve the response being measured. Broadly, the AC50 is the concentration giving half of the maximal activity seen. Take `Cc1c(NC(=O)C(C)OC(=O)c2ccc([N+](=O)[O-])s2)c(=O)n(-c2ccccc2)n1C` (stereo not given): the IC50 in test [1] is 1.99 µM (active); in test [2] it was 49.5 µM (inactive); in test [5], 7.35 µM (active). Also, the AC50 is > 20 µM (inactive) in [3] and 34.1 µM (active) in test [4].

For the molecule `COc1cc(Br)c(C(=O)c2nccc3cc(OC)c(OC)cc23)cc1OC`, the IC50 in [1] was 2.29 µM (active); in test [2] it was 3.53 µM (active); in test [6], 35.6 µM (active); in test [5], 0.377 µM (active). Also, the AC50 in test [3] is 0.416 µM (active).

By Ki is commonly meant a measure of affinity in units of concentration, obtained from inhibition or displacement. Take `CC(N)C1CCC(C(=O)Nc2ccnc3[nH]ccc23)CC1` (stereo not given): the Ki was > 1.58 µM (inactive) in [7]; > 3.98 µM (inactive) in test [8]; > 7.94 µM (inactive) in test [9]; > 2.51 µM (inactive) in [10]; > 3.16 µM (inactive) in [11]; 5.01 µM (active) in test [12]. In addition, the Ki at Ephrin type-A receptor 2 is > 3.16 µM (inactive); in test [13], 0.631 µM (active); in test [14] it was > 2 µM (inactive); in test [15] it was > 3.16 µM (inactive).
